We go through 25 compounds from patent publication US20230129359A1, “MUSCARINIC RECEPTOR 4 ANTAGONISTS AND METHODS OF USE” (Neurocrine Biosciences, Inc., priority 2020, published 2023).

pKi: −log10 of the molar value.

This assay addresses T1, human M4 receptor (Homo sapiens, UniProt P08173).
T1 construct: expressed in transfected cells; host or cells: CHO cells
T1 sequence (P08173 1-479): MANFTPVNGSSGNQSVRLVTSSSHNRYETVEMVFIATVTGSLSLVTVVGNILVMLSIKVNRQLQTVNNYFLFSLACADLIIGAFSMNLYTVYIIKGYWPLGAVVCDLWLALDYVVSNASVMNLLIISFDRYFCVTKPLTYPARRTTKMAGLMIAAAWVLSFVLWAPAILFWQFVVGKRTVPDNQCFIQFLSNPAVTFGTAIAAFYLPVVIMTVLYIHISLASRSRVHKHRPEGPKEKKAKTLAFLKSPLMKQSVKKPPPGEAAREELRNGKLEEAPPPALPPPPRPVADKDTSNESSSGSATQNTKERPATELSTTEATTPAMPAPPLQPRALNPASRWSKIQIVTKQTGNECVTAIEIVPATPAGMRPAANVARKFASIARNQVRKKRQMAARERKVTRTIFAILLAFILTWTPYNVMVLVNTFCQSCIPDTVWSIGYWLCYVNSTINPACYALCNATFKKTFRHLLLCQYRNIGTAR
Briefly: Radioligand ([3H]N-methylscopolamine) binding assay, membranes from CHO cells expressing human M4 receptor. The note with it: Ki against human M4 receptor; membranes from CHO cells; tritiated N-methylscopolamine 1.5 nM; read-out: K. The method, boiled down:
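Ki values derive from displacement of tritiated N-methylscopolamine (1.5 nM) from human M4 receptor in CHO membranes. Membranes, radioligand and twelve-point compound series were incubated together at 37 °C for 90 minutes in pH 7.4 HEPES/NaCl/MgCl2/EDTA buffer. Rapid vacuum filtration over polyethylenimine-pretreated filters was followed by radioactivity counting.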
As to `[2H]c1c([2H])c([2H])c(C([2H])([2H])N2CC3(CC(OC(=O)N4[C@H](C)CN(c5ncc(C(F)(F)F)cn5)C[C@@H]4C)C3)C2)c([2H])c1[2H]` [Compound 387, 2-[(^2H5)phenyl(^2H2)methyl]-2-azaspiro[3.3]heptan-6-yl (2R,6S)-2,6-dimethyl-4-[5-(trifluoromethyl)pyrimidin-2-yl]piperazine-1-carboxylate], the pKi was > 8.00.
In the case of `[2H]c1c([2H])c([2H])c(C([2H])([2H])N2CC3(CC(OC(=O)N4[C@H](C)CN(c5cnc(C(F)(F)F)cn5)C[C@@H]4C)C3)C2)c([2H])c1[2H]` [Compound 388, 2-[(^2H5)phenyl(^2H2)methyl]-2-azaspiro[3.3]heptan-6-yl (2R,6S)-2,6-dimethyl-4-[5-(trifluoromethyl)pyrazin-2-yl]piperazine-1-carboxylate], the pKi is 7.00 to 8.00.
Next, `C[C@@H]1CN(c2cnc3ccccc3n2)C[C@H](C)N1C(=O)OC1CC2(C1)CN(Cc1ccc(F)cc1)C2` [Compound 391, 2-[(4-fluorophenyl)methyl]-2-azaspiro[3.3]heptan-6-yl (2R,6S)-2,6-dimethyl-4-(quinoxalin-2-yl)piperazine-1-carboxylate]: 7.00 to 8.00; `C[C@@H]1CN(c2ncc3ccccc3n2)C[C@H](C)N1C(=O)OC1CC2(C1)CN(Cc1ccc(F)cc1)C2` [Compound 392, 2-[(4-fluorophenyl)methyl]-2-azaspiro[3.3]heptan-6-yl (2R,6S)-2,6-dimethyl-4-(quinazolin-2-yl)piperazine-1-carboxylate]: > 8.00; `C[C@@H]1CN(c2cnc3ccccc3n2)[C@@H](C)CN1C(=O)OC1CC2(C1)CN(Cc1ccc(F)cc1)C2` [Compound 394, 2-[(4-fluorophenyl)methyl]-2-azaspiro[3.3]heptan-6-yl (2R,5S)-2,5-dimethyl-4-(quinoxalin-2-yl)piperazine-1-carboxylate]: 7.00 to 8.00.
Take `COc1ccc2nc(N3C[C@@H](C)N(C(=O)OC4CC5(C4)CN(Cc4ccc(F)cc4)C5)[C@@H](C)C3)cnc2c1` [Compound 395, 2-[(4-fluorophenyl)methyl]-2-azaspiro[3.3]heptan-6-yl (2R,6S)-4-(6-methoxyquinoxalin-2-yl)-2,6-dimethylpiperazine-1-carboxylate]: the pKi is 7.00 to 8.00.
Next, `COc1ccc2nc(N3C[C@@H](C)N(C(=O)OC4CC5(C4)CN(Cc4ccc(F)cc4)C5)C[C@@H]3C)cnc2c1` [Compound 396, 2-[(4-fluorophenyl)methyl]-2-azaspiro[3.3]heptan-6-yl (2R,5S)-4-(6-methoxyquinoxalin-2-yl)-2,5-dimethylpiperazine-1-carboxylate]: 7.00 to 8.00; `C[C@@H]1CN(c2cnc3cc(F)ccc3n2)[C@@H](C)CN1C(=O)OC1CC2(C1)CN(Cc1ccc(F)cc1)C2` [Compound 397, 2-[(4-fluorophenyl)methyl]-2-azaspiro[3.3]heptan-6-yl (2R,5S)-4-(6-fluoroquinoxalin-2-yl)-2,5-dimethylpiperazin-1-carboxylate]: 7.00 to 8.00; `C[C@@H]1CN(c2cnc(C(F)(F)F)cn2)C[C@@H](C)N1C(=O)OC1CC2(C1)CN(Cc1ccc(F)cc1)C2` [Compound 398, 2-[(4-fluorophenyl)methyl]-2-azaspiro[3.3]heptan-6-yl (2R,6R)-2,6-dimethyl-4-[5-(trifluoromethyl)pyrazin-2-yl]piperazine-1-carboxylate]: 7.00 to 8.00.
To `C[C@@H]1CN(c2cnc(C(F)(F)F)cn2)C[C@H](C)N1C(=O)OC1CC2(C1)CN(Cc1ccc(F)cc1)C2` [Compound 399, 2-[(4-fluorophenyl)methyl]-2-azaspiro[3.3]heptan-6-yl (2R,6S)-2,6-dimethyl-4-[5-(trifluoromethyl)pyrazin-2-yl]piperazine-1-carboxylate] belongs 7.00 to 8.00; to `C[C@@H]1CN(c2cnc(C(F)(F)F)cn2)[C@@H](C)CN1C(=O)OC1CC2(C1)CN(Cc1ccc(F)cc1)C2` [Compound 400, 2-[(4-fluorophenyl)methyl]-2-azaspiro[3.3]heptan-6-yl (2R,5S)-2,5-dimethyl-4-[5-(trifluoromethyl)pyrazin-2-yl]piperazine-1-carboxylate], 7.00 to 8.00.
Next, `C[C@@H]1CN(c2nc3ccc(F)cc3s2)C[C@@H](C)N1C(=O)OC1CC2(C1)CN(Cc1ccc(C(N)=O)cc1)C2` [Compound 402, 2-[(4-carbamoylphenyl)methyl]-2-azaspiro[3.3]heptan-6-yl (2R,6R)-4-(6-fluoro-1,3-benzothiazol-2-yl)-2,6-dimethylpiperazine-1-carboxylate]: 7.00 to 8.00.
Consider `C[C@@H]1CN(c2nc3ccc(C(F)(F)F)cc3s2)C[C@H](C)N1C(=O)OC1CC2(C1)CN(Cc1ccncc1)C2` [Compound 416, 2-(pyridin-4-ylmethyl)-2-azaspiro[3.3]heptan-6-yl (2R,6)S-2,6-dimethyl-4-[6-(trifluoromethyl)-1,3-benzothiazol-2-yl]piperazine-1-carboxylate], for which the pKi was > 8.00.
To `C[C@@H]1CN(c2ncc3ccccc3n2)C[C@H](C)N1C(=O)OC1CC2(C1)CN(Cc1ccncc1)C2` [Compound 421, 2-(pyridin-4-ylmethyl)-2-azaspiro[3.3]heptan-6-yl (2R,6S)-2,6-dimethyl-4-(quinazolin-2-yl)piperazine-1-carboxylate] belongs 6.00 to 7.00; to `C[C@@H]1CN(c2nc3ccc(C(F)(F)F)cc3o2)C[C@H](C)N1C(=O)OC1CC2(C1)CN(Cc1ccccc1)C2` [Compound 428, 2-benzyl-2-azaspiro[3.3]heptan-6-yl (2R,6S)-2,6-dimethyl-4-[6-(trifluoromethyl)-1,3-benzoxazol-2-yl]piperazine-1-carboxylate], > 8.00; to `C[C@@H]1CN(c2nc3ccc(C(F)(F)F)cc3o2)C[C@@H](C)N1C(=O)OC1CC2(C1)CN(Cc1ccccc1)C2` [Compound 429, 2-benzyl-2-azaspiro[3.3]heptan-6-yl (2R,6R)-2,6-dimethyl-4-[6-(trifluoromethyl)-1,3-benzoxazol-2-yl]piperazine-1-carboxylate], 7.00 to 8.00.
Next, `C[C@@H]1CN(c2nc3ccc(C(F)(F)F)cc3o2)[C@@H](C)CN1C(=O)OC1CC2(C1)CN(Cc1ccccc1)C2` [Compound 430, 2-benzyl-2-azaspiro[3.3]heptan-6-yl (2R,5S)-2,5-dimethyl-4-[6-(trifluoromethyl)-1,3-benzoxazol-2-yl]piperazine-1-carboxylate]: > 8.00; `C[C@@H]1CN(c2nc3ncc(C(F)(F)F)cc3s2)C[C@H](C)N1C(=O)OC1CC2(C1)CN(Cc1ccccc1)C2` [Compound 431, 2-benzyl-2-azaspiro[3.3]heptan-6-yl (2R,6S)-2,6-dimethyl-4-[6-(trifluoromethyl)-[1,3]thiazolo[4,5-b]pyridin-2-yl]piperazine-1-carboxylate]: 7.00 to 8.00.
As to `C[C@@H]1CN(c2nc3ncc(C(F)(F)F)cc3s2)C[C@@H](C)N1C(=O)OC1CC2(C1)CN(Cc1ccccc1)C2` [Compound 432, 2-benzyl-2-azaspiro[3.3]heptan-6-yl (2R,6R)-2,6-dimethyl-4-[6-(trifluoromethyl)-[1,3]thiazolo[4,5-b]pyridin-2-yl]piperazine-1-carboxylate], the pKi is 7.00 to 8.00.
To `C[C@@H]1CN(c2nc3ncc(C(F)(F)F)cc3s2)[C@@H](C)CN1C(=O)OC1CC2(C1)CN(Cc1ccccc1)C2` [Compound 433, 2-benzyl-2-azaspiro[3.3]heptan-6-yl (2R,5S)-2,5-dimethyl-4-[6-(trifluoromethyl)-[1,3]thiazolo[4,5-b]pyridin-2-yl]piperazine-1-carboxylate] belongs 7.00 to 8.00.
To `C[C@@H]1CN(c2nc3ccc(C#N)cc3s2)[C@@H](C)CN1C(=O)OC1CC2(C1)CN(Cc1ccccc1)C2` [Compound 435, 2-benzyl-2-azaspiro[3.3]heptan-6-yl (2R,5S)-4-(6-cyano-1,3-benzothiazol-2-yl)-2,5-dimethylpiperazine-1-carboxylate] belongs 6.00 to 7.00.
Next, `O=C(OC1CC2(C1)CN(Cc1ccccc1)C2)N1C2COCC1CN(c1nc3ccc(C(F)(F)F)cc3s1)C2` [Compound 437, 2-benzyl-2-azaspiro[3.3]heptan-6-yl 7-[6-(trifluoromethyl)-1,3-benzothiazol-2-yl]-3-oxa-7,9-diazabicyclo[3.3.1]nonane-9-carboxylate]: 7.00 to 8.00; `C[C@@H]1CN(c2nc3cc(F)ccc3s2)C[C@H](C)N1C(=O)OC1CC2(C1)CN(Cc1ccccc1)C2` [Compound 438, 2-benzyl-2-azaspiro[3.3]heptan-6-yl (2R,6S)-4-(5-fluoro-1,3-benzothiazol-2-yl)-2,6-dimethylpiperazine-1-carboxylate]: > 8.00.
As to `C[C@@H]1CN(c2nc3cc(F)ccc3s2)C[C@@H](C)N1C(=O)OC1CC2(C1)CN(Cc1ccccc1)C2` [Compound 439, 2-benzyl-2-azaspiro[3.3]heptan-6-yl (2R,6R)-4-(5-fluoro-1,3-benzothiazol-2-yl)-2,6-dimethylpiperazine-1-carboxylate], the pKi is 7.00 to 8.00.
To `C[C@@H]1CN(c2nc3cc(F)ccc3s2)[C@@H](C)CN1C(=O)OC1CC2(C1)CN(Cc1ccccc1)C2` [Compound 440, 2-benzyl-2-azaspiro[3.3]heptan-6-yl (2R,5S)-4-(5-fluoro-1,3-benzothiazol-2-yl)-2,5-dimethylpiperazine-1-carboxylate] belongs > 8.00.
